According to patent publication US20240277684A1, “BLOCKADE OF CHEMOKINE (C-C MOTIF) RECEPTOR 2 DURING FLUID RESUSCITATION” (University of South Florida, priority 2022, published 2024):

Key:
hemorrhagic shock [1] = experiment: Example 1 first series: 30 min hemorrhagic shock, fluid resuscitation until t=90 min; assay type: in vivo, rat
Procedure: In vivo animal experiments. All procedures were performed in accordance with the National Institutes of Health Guidelines for Use of Laboratory Animals and were approved by the University of South Florida Institutional Animal Care and Use Committeee (IS00008139). Male Sprague-Dawley rats (300-400 g, Envigo, Indianapolis, IN, USA). were anesthetized with 1.7% isoflurane via nose-cone inhalation with the SomnoSuite anesthesia system (Kent Scientific, Torrington, CT, USA). […] The left femoral artery was isolated and cannulated with a 24-gauge peripheral intravenous catheter to allow for blood withdrawal, hemodynamic monitoring, drug administration, and fluid resuscitation. Hemodynamics were continuously monitored with the SurgivetV6400 blood pressure monitor (Med-Electronics, Beltsville, MD, USA), and blood pressures and heart rate were recorded at 1-10 min intervals. All animals were observed over a 10 min period to ensure hemodynamic stability before start of the experiments. All experiments were performed randomized in alternating order. […] Physiol Res 2019; 68(4):675-679; Nassoiy S P, et al., Effects of the Kv7 voltage-activated potassium channel inhibitor linopirdine in rat models of haemorrhagic shock. Clin Exp Pharmacol Physiol 2018; Nassoiy S P, et al., Kv7 voltage-activated potassium channel inhibitors reduce fluid resuscitation requirements after hemorrhagic shock in rats. J Biomed Sci 2017; 24(1):8; Bach H Ht, et al., Proteasome inhibition prolongs survival during lethal hemorrhagic shock in rats. J Trauma Acute Care Surg 2013; 74(2):499-507; Bach H Ht, et al., Chemokine (C-X-C motif) receptor 4 and atypical chemokine receptor 3 regulate vascular alpha(1)-adrenergic receptor function. Mol Med 2014; 20:435-447), with slight modifications. In brief, rats were hemorrhaged to a mean arterial blood pressure (MAP) of less than or equal to 30 mmHg for a period of 30 minutes. At the end of the HS period (t=30 min), animals were injected with either vehicle (1 mL LR) or drug in 1 mL LR, followed by fluid resuscitation with 1 mL bolus injections of LR to maintain a systolic blood pressure (SBP) of 90 mmHg or a MAP of 60 mmHg. To avoid fluid overload, bolus injections of LR were limited to 1 mL/min. […] Animals were then resuscitated until t=90 min. At t=0, 15, 30, 60 and 90 min, blood samples were obtained, and plasma prepared. Samples were stored at -70° C. until further processing. At t=90 min, animals were euthanized (isoflurane inhalation, bilateral pneumothorax).

hemorrhagic shock [2] = experiment: Example 2 Series 2: 60 min hemorrhagic shock, single dose, fluid resuscitation until t=300 min; assay type: in vivo, rat
Procedure: (§1) The hemorrhagic shock models were performed as described previously, with slight modifications (DeSantis A J, et al., The Chemokine (C-C Motif) Receptor 2 Antagonist INCB3284 Reduces Fluid Requirements and Protects From Hemodynamic Decompensation During Resuscitation From Hemorrhagic Shock. Crit Care Explor 2022;4(5):e0701; Bach H H, et al., Chemokine (C-X-C motif) receptor 4 and atypical chemokine receptor 3 regulate vascular alpha(1)-adrenergic receptor function. Mol Med 2014; 20:435-47; Nassoiy S P, et al., Effects of the Kv7 voltage activated potassium channel inhibitor linopirdine in rat models of hemorrhagic shock. Clin Exp Pharmacol Physiol 2018. doi: 10.1111/1440-1681.12958. PubMed PMID: 29702725; Bach H H, et al., Proteasome inhibition prolongs survival during lethal hemorrhagic shock in rats. J Trauma Acute Care Surg 2013; 74(2):499-507). In brief, anesthesia induction was performed with the animal and isoflurane-soaked gauze placed in a bell jar. After anesthesia induction, the animals were transferred to the operative field and anesthesia was maintained with 2.7% isoflurane administered via nose-cone inhalation with the SomnoSuite small animal anesthesia system (Kent Scientific Corporation, Torrington, CT, USA). […] Using a direct cut-down technique, the left femoral artery was isolated and cannulated with a 24-gauge peripheral intravenous catheter to allow for blood withdrawal, hemodynamic monitoring, drug administration, and fluid resuscitation. After catheter placement, isoflurane was decreased to 1.5%. Hemodynamics were continuously monitored with the Surgivet invasive blood pressure monitor (Med-Electronics, Beltsville, MD, USA). Blood pressures were recorded at 1-5 min intervals during the hemorrhage and resuscitation periods. Four subsequent series of experiments were performed. All experiments in each series were performed in alternating order. In all experiments animals were continuously monitored and remained under general anesthesia until euthanasia or death, as defined by asystole or loss of pulse pressure.
(§2) Series 2: Rats were hemorrhaged to a MAP of less than or equal to 30 mmHg for a period of 60 min, followed by fluid resuscitation until t=300 min as in Series 1. At the end of the hemorrhagic shock period (t=60 min), animals were injected with 1 mL of normal saline (NS) (n=6), 5 μmol/kg (n=6) INCB3284 in 1 mL NS or 1.1 μmol/kg SB 328437 (n=6) in 1 mL NS at t=60 min. At t=0 min, 60 min, 120 min, 180 min, 240 min and 300 min, blood samples (0.3 ml) were obtained and used for arterial blood gas analyses and measurements of routine laboratory parameters. At t=300 min, surviving animals were euthanized (5% isoflurane inhalation, bilateral pneumothorax).
(§3) Arterial blood gases and routine laboratory parameters. Arterial blood gases, electrolytes, creatinine, lactate, hematocrit and hemoglobin were analyzed using the Element point of care veterinary blood gas, electrolyte and critical care analyzer (Cuattro Veterinary USA, Loveland, CO, USA).

hemorrhagic shock [3] = experiment: Example 2 Series 3: 60 min hemorrhagic shock, redosing, fluid resuscitation until t=300 min; assay type: in vivo, rat; conditions: 5 μmol/kg at t=60 min and t=200 min
Procedure: as §1
as §2, with “3:” for “2:”, “2.” for “1.”, “min) and at t=200 min,” for “min),”, “NS (n=7) or with” for “normal saline (NS) (n=6),”, “μmol/kg” for “μmol/kg (n=6)”, “(n=7).” for “or 1.1 μmol/kg SB 328437 (n=6) in 1 mL NS at t=60 min.”
as §3

CCR2 = CCR2 (Homo sapiens, UniProt P41597); conditions: read-out: IC50, inhibiting monocyte chemoattractant protein-1 binding to hCCR2; cited from earlier work
CCR2, sequence (P41597 whole entry): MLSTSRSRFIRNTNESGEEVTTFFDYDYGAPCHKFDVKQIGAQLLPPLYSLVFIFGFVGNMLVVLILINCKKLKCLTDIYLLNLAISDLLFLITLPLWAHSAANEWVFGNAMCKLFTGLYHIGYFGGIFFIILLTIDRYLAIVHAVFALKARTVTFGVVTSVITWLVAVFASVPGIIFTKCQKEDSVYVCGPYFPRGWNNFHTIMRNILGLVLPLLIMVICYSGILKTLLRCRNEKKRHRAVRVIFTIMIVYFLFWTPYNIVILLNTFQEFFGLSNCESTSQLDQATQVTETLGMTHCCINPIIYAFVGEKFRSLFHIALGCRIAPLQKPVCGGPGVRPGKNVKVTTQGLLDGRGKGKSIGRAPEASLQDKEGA

COc1ccc([C@]2(O)CC[C@@H](N3CC[C@@H](NC(=O)CNC(=O)c4cccc(C(F)(F)F)c4)C3)CC2)cn1 [INCB3284]
fluid requirements to maintain hemodynamics (hemorrhagic shock [1]; 1.1 μmol/kg at t=30 min, until t=90 min, p>0.05 vs. vehicle): 50 ± 1 mL/kg
effect on fluid requirements to maintain hemodynamics (hemorrhagic shock [1]; 1.1 μmol/kg at t=30 min, vs vehicle): did not affect fluid requirements
MAP during the observation period (hemorrhagic shock [1]; 5.5 μmol/kg at t=30 min): increased MAP at various time points
reduction of fluid requirements (hemorrhagic shock [1]; 5.5 μmol/kg at t=30 min, until t=90 min, vs vehicle): 58±11%
fluid requirements to maintain hemodynamics (hemorrhagic shock [1]; 5.5 μmol/kg at t=30 min, until t=90 min, p<0.05 vs. vehicle): 21.7 ± 6 mL/kg
median survival time (hemorrhagic shock [2]; 1.1 μmol/kg SB328437 or 5 μmol/kg INCB3284 at t=60 min): undefined
animals that survived the resuscitation period (hemorrhagic shock [2]; 1.1 μmol/kg SB328437 or 5 μmol/kg INCB3284 at t=60 min, until t=300 min, n=6): all
reduction of fluid resuscitation requirements to achieve the target MAP (hemorrhagic shock [2]; 5 μmol/kg at t=60 min, until t=220 min, p<0.05 vs. vehicle): 65%
steep increase in fluid requirements (hemorrhagic shock [3]): prevented
reduction of total fluid requirements (hemorrhagic shock [3]; at t=300 min, vs vehicle): 75%
total fluid requirements (hemorrhagic shock [3]; at t=300 min, p<0.05 vs. vehicle): 33 ± 16 mL/kg
median survival time (hemorrhagic shock [3]; p<0.05 vs. vehicle): undefined
mortality (hemorrhagic shock [3]; p<0.05 vs. vehicle): zero
IC50 (CCR2): 3.7 nM
